Results published in patent US7253295B2, “Chloride channel opener” (Sucampo AG, priority 2001, dated 2007).

molecular target: T1, recombinant human ClC-2 Chloride Channels (Homo sapiens, UniProt P51788); experiment: Whole cell patch clamp, ClC-2 transfected HEK cells, current increase (Test Example 4); format: cell-based; details: 100 nM, change from control
T1 construct: His; T7; expressed in transfected cells; host or cells: HEK-293 (ATCC), pcDNA3.1, G-418 selected
T1 sequence (P51788 1-898): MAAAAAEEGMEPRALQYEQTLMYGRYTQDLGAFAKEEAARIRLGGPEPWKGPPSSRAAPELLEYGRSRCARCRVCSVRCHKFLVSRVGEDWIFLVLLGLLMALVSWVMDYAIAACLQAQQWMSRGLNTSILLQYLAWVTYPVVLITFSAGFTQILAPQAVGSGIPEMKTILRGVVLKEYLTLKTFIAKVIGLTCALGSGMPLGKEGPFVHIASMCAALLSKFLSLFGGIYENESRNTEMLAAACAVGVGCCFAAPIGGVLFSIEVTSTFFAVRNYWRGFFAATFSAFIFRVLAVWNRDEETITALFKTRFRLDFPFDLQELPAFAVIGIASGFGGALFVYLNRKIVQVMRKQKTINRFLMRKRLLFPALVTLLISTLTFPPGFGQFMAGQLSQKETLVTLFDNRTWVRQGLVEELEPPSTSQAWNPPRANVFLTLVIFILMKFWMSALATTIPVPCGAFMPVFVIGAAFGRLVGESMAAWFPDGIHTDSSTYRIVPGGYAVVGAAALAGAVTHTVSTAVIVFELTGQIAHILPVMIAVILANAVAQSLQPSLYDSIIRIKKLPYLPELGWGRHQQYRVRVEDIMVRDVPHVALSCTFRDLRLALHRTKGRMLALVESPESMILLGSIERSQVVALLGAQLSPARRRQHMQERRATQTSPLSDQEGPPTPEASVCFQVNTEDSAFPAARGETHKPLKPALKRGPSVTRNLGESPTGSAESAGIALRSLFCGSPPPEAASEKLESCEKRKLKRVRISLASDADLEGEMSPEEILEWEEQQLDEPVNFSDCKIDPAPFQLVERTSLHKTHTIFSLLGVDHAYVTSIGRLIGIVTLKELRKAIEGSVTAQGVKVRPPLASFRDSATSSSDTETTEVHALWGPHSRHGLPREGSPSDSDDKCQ
Protocol: According to the same manner as described in Example 1, whole cell patch clamp measurements were carried out.
Test compounds were used at a final concentration of 100 nM.

In order of rising “Activation of ClC-2 channels ΔpA/pF” value:
1. CCCCC(F)(F)C(O)CC[C@H]1[C@H](O)CC(=O)[C@@H]1CCCCCCC(=O)O (stereo partly shown) [Compound 8, 13,14-dihydro-16,16-difluoro-PGE1]  24.6 pA/pF
2. CCCCC(F)(F)C1(O)CC[C@@H]2[C@@H](CCCCCCC(=O)NCC)[C@@H](O)C[C@H]2O1 (stereo partly drawn) [Compound 9, N1-ethyl-7-[(2,4aR,5R,6S,7aR)-2-(1,1-difluoropentyl)-2,6-dihydroxyperhydrocyclopenta[b]pyran-5-yl]heptanamide]  38.2 pA/pF

tested on: AS-HBE cells; experiment: Short-circuit current in AS-HBE cells (Test Example 3); format: cell-based, human; details: 250 nM
Protocol: AS-HBE is a human bronchial epithelial (HBE) cell line expressing the first 131 nucleotides of CFTR in the antisense direction (antisense CFTR 16HBE14o- cells, HBE-AS; also called AS-HBE). As a result, AS-HBE cells lack CFTR transcripts and lack functional CFTR. However, AS-HBE cells do express functional ClC-2 in a manner identical to the parental cell line, 16HBE14o- cells, from which they were derived. AS-HBE cells were maintained at 37° C. in 5%/95% CO2/O2 in Minimal Essential Medium (MEM; GIBCO/Invitrogen, Carlsbad, Calif.) supplemented with Earl's salt, L-glutamine (GIBCO/Invitrogen), 10% heat-inactivated fetal bovine serum, 100 units/ml penicillin, 100 μg/ml streptomycin sulfate and 400 μg/ml G-418 (GIBCO/Invitrogen). The cells were grown in air-liquid interface on Biocoat inserts (Fisher Scientific, Chicago, Ill.), coated with human plasma fibronectine (GIBCO/Invitrogen) and vitrogen (Cohesion Technologies, Palo Alto, Calif.).
According to the same manner as described in Example 2, Short-circuit current measurements in the AS-HBE cells were carried out. Changes in short-circuit current (ΔIsc) were normalized to the filter area (0.3 cm^2) and reported as ΔIsc/cm^2.
Test compounds were used at a final concentration of 250 nM.

In order of rising “Changes in short-circuit currents (Δlsc)” value:
1. CCCCCCC(F)(F)C1(O)CC[C@H]2[C@@H](CC(=O)[C@@H]2CCCCCCCCC(=O)OC(C)C)O1 (stereo partly drawn) [Compound 5, Isopropyl (−)-9-[(4aR,5R,7aR)-2-(1,1-difluoroheptyl)-2-hydroxy-6-oxoperhydrocyclopenta[b]pyran-5-yl]nonanoate]  0.3 μA/cm^2
2. CCCCC[C@H](O)/C=C/[C@@H]1[C@@H](C/C=C\CCCC(=O)O)[C@@H](O)C[C@H]1O [Compound 6, PGF2α, reference compound]  0.7 μA/cm^2
3. CCCCC(F)(F)C(=O)/C=C/[C@H]1[C@H](O)CC(=O)[C@@H]1CCCCCCC(=O)O [Compound 4, 15-keto-16,16-difluoro-PGE1]  1.0 μA/cm^2
4. CCCCC[C@H](O)/C=C/[C@@H]1[C@H]2C/C(=C/CCCC(=O)[O-])O[C@H]2C[C@H]1O.[Na+] [Compound 7, PGI2-Na, reference compound]  1.0 μA/cm^2
5. CCCCC(F)(F)C1(O)CC[C@H]2[C@@H](CC(=O)[C@@H]2CCCCCCC(=O)NCC)O1 (stereo partly drawn) [Compound 3, N1-ethyl-7-[(2,4aR,5R,7aR)-2-(1,1-difluoropentyl)-2-hydroxy-6-oxoperhydrocyclopenta[b]pyran-5-yl]heptanamide]  2.7 μA/cm^2
